Measured values taken from US7704987B1, “β-amyloid peptide inhibitors” (Prana Biotechnology Ltd, priority 1999, dated 2010).

Tests used:
[1] = test system: Aβ deposited in the brains of Alzheimer's disease patients; assay: Brain tissue assay: solubilisation of Aβ deposits from post-mortem AD brain (Western blot); design: species or system human; conditions: post-mortem brain homogenate in PBS, 24 h at room temperature, Western blot (FIG. 7); compound concentrations as in Table 1
Protocol: Post-mortem tissues, stored at −80° C., were obtained from the NH&MRC-supported Brain Bank at the University of Melbourne, together with accompanying histopathological and clinical data. AD was assessed according to CERAD criteria (Mirra et al, 1991).
Compounds were dissolved in DMSO and diluted in a PBS mixture. Insoluble material was removed.
The cortical meninges were removed and gray matter (0.5 g) was homogenised using a DIAX 900 homogeniser (Heidolph & Co, Kelheim, Germany) for 3×30 s periods at full speed, with a 30 s rest between strokes, in 3 ml of ice-cold phosphate-buffered saline (PBS), pH 7.4, containing a mixture of protease inhibitors (BioRad, Hercules, Calif.), but without ethylene diamine tetraacetic acid (EDTA), or in the presence of test compounds or metal ions prepared in PBS. The homogenate samples were incubated for 24 h at room temperature. To obtain the PBS-extractable fraction, the homogenate was centrifuged at 100,000×g for 30 min, the supernatant removed, and divided into 1 ml aliquots. Protein in a 1 ml supernatant sample was precipitated using 1:5 ice-cold 10% trichloracetic acid (TCA), and pelleted by centrifugation at 10,000×g for 20 mins. The pellet was prepared for PAGE by boiling for 10 min in Tris-tricine SDS-sample buffer containing 8% SDS, 10% mercaptoethanol and 8M urea. Total Aβ in the cortical samples was obtained by homogenizing in 1 ml PBS and boiling in sample buffer as described above.
Tris-tricine PAGE was performed by loading samples on to 10-20% gradient gels (Novex, San Diego, Calif.), followed by transfer on to 0.2 mm nitrocellulose membrane (BioRad, Hercules, Calif.). The Aβ was detected using the following monoclonal antibodies: W02, which detects Aβ40 and Aβ42 at an epitope between residues 5 and 8; G210, which is specific for Aβ species which terminate at carboxyl residue 40; or G211, which is specific for Aβ species which terminate at carboxyl residue 42 (Ida et al, 1996), in conjunction with horseradish peroxidase(HRP)-conjugated rabbit anti-mouse IgG (Dako, Denmark), and visualised using chemiluminescence (ECL, Amersham Life Science, UK). Each gel included two or more lanes containing known quantities of synthetic Aβ (Keck Laboratory, Yale University New Haven, Conn.) as reference standards. Blot films were scanned using a Relisys scanner with transparency adapter (Tech Information Systems, Taiwan) and densitometry performed using Image 1.6 software (NIH, Bethesda, Mass.). All samples were analysed at least twice, and gel loadings and dilutions adjusted to fit within the quantifiable region of the standard curve.

[2] = test system: cerebral cortical neuron cultures; assay: LDH assay for cell death: inhibition of Aβ1-42 neurotoxicity in vitro; assay type: cell-based; conditions: treatment alone; LDH release compared to untreated control cultures; 5 days; KJB030 dialysed, at most 20 μM; Aβ1-42 20 μM
Protocol: Compound KJB030 was dissolved in chelex 100-treated double distilled H2O (CH100-dH2O) at a concentration of 200 μM. Aβ1-42 was dissolved in either 200 μm KJB030 solution or in CH100-dH2O. Both solutions contained 200 μM Aβ1-42. The Aβ1-42 solutions were incubated at ambient temperature (˜20-24° C.) for 3 days. The solutions were then brought to a physiological state by adding 10× phosphate buffered saline (PBS), pH 7.4, thus bringing samples to 1×PBS. Samples were then incubated at 37° C. for 24 hr to induce aggregation of Aβ1-42. Samples were subsequently dialysed in microdialysis cups (3500 Mr cut-off) placed in 5 L PBS for 24 hr, in order to remove some of the excess KJB030 without loss of Aβ1-42.
Dialyzed samples were added to six day old cerebral cortical neuron cultures growing in Neurobasal medium with B27 supplements but without anti-oxidants (Gibco). Samples were diluted into the culture medium to a final concentration of 20 μM Aβ1-42. […]
Determination of cell death was performed using the lactate dehydrogenase (LDH) assay kit (Boehringer Mannheim). […] Culture medium was mixed with the reagents from the LDH kit as per the manufacturer's instructions and the level of LDH measured colourimetrically on a spectrophotometric 96 well plate reader at 490 nm.

Aβ1-28 = target: T1, Aβ1-28 (Homo sapiens, UniProt P05067); assay: 1H NMR reaction of compound with Aβ1-28; assay type: binding; conditions: ~1 equivalent, 24 hrs in DMSO; 600 MHz 1H NMR, pH 6.9, 271 K
T1 construct: adding two equivalents of Cu^2+ to Aβ1-28
T1 sequence (P05067 672-699): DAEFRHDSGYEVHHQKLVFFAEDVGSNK
Protocol: 1.8 mgs of Aβ1-28 was dissolved in 5 mls DMSO was mixed with 0.33 mgs of compound KJB001 (˜1 equivalent) dissolved in 0.3 mls DMSO. The mixture was allowed to stand for 24 hrs before being freeze-dried. The resulting blue powder was dissolved in 550 μl of an aqueous solution containing 100 mM NaCl, 50 mM phosphate buffer, pH 6.9. A solution of 1.8 mgs Aβ1-28 dissolved in 550 μl of the same solution was used as a control.

Molecule | ability to solubilise Aβ deposited in the brains of Alzheimer's disease patients [1] | % cell death [2] [%] | reaction with His6, His13, His14 of Aβ1-28 (shift of histidine C2H peaks) (Aβ1-28)
[Mn+2].c1ccc2c(c1)-c1nc3nc(nc4[n-]c(nc5[n-]c(nc-2n1)c1ccccc51)c1ccccc41)-c1ccccc1-3 [KJB006, Manganese(II) phthalocyanine] | good activity | – | –
C1=Cc2nc1c(-c1ccccc1)c1ccc([nH]1)c(-c1ccccc1)c1nc(c(-c3ccccc3)c3ccc([nH]3)c2-c2ccccc2)C=C1.[Cl-].[Cl-].[Cl-].[Mn+3] [KJB007, 5,10,15,20-tetraphenyl-21H,23H-porphine manganese(III) chloride] | good activity | – | –
Aβ1-42: β-amyloid peptide 1-42, the neurotoxic agent in the LDH assay | – | 22 ± 3.5 | –
[Co+2].c1ccc2c(c1)-c1nc-2nc2[n-]c(nc3nc(nc4[n-]c(n1)c1ccccc41)-c1ccccc1-3)c1ccccc21 [KJB001, Co(II) phthalocyanine β-form] | particularly strong solubilising activity | – | had reacted with these residues
CC(C)(C)c1cc(C=N[C@H]2CCCC[C@@H]2N=Cc2cc(C(C)(C)C)cc(C(C)(C)C)c2[O-])c([O-])c(C(C)(C)C)c1.[Cl-].[Mn+3] [KJB002, (S,S)-(+)-N-N′-bis(3,5-di-tert-butylsalicylidene)-1-2-cyclohexane diamino manganese(III) chloride] | good activity | – | –
